Results taken from patent US20250051403A1, “ANTIMICROBIAL PEPTIDES, VARIANTS AND CHEMICAL ANALOGUES THEREOF AND THEIR USES” (priority 2021, published 2025).
In brackets after ≈: the same amount, converted by molar mass. Non-standard residues stand in square brackets, D forms with d. Residues, ends and D or L forms follow the SMILES beside them. Abu = CC[C@H](N)C(=O)O

Assays:
[1] = test system: S. aureus methicillin resistant USA300 (ATCC BAA-1717); assay: MIC, broth microdilution; assay type: cell-based, Staphylococcus aureus; settings: USA300
[2] = test system: P. aeruginosa Fluoroquinolone resistant (CIP 107398); assay: MIC, broth microdilution; assay type: cell-based, Pseudomonas aeruginosa; settings: CIP 107398
[3] = test system: Salmonella enterica (CIP 80.39); assay: MIC, broth microdilution; assay type: cell-based; settings: Table VI; Salmonella enterica
Protocol: To standardize the bacterial cell suspension for assay of antibacterial activity, some colonies of each strain grown overnight on MHA (Mueller Hinton Agar. ROTH) plates were suspended in MHB (Mueller Hinton Broth. ROTH) or MHB saline (Mueller Hinton Broth containing 565 mM NaCl) and incubated at 37° C. or 30° C. until visible turbid. This log-phase inoculum was diluted 1:100 in the same culture media. Using sterile 96-well microtiter plates (CELLSTAR. Greiner bio-one), serial 2-fold dilutions (40 to 0.78 μM) of each peptide were prepared in cation-adjusted acetic acid 0.02% with 0.4% BSA (Bovin Serum Albumin fraction V. Boehringer) at a volume of 10 μL/well. Each well was inoculated with 100 μL of the standardized bacterial inoculum, corresponding to a final test concentration of about 10^5 CFU/mL. Antimicrobial activities were expressed as the MIC (Minimal Inhibitory Concentration), the lowest concentration of peptide at which 100% inhibition of microbial growth was observed after 24 h of incubation at 37° C. or 30° C. by measuring OD600 in a microtiter plate reader. The minimal bactericidal concentration (MBC) was defined as the peptide concentration where no colony growth was observed.
The same experiments as described in 1) were performed. For the evaluation of antimicrobial activity against some other strains, a resazurin microtiter assay was used as explained hereinafter.

[4] = test system: Acinetobacter baumannii; assay type: cell-based
Protocol: (§1) Biological (antimicrobial) activity of Michelicin (which comprises two disulfide bridges formed between four cysteines) synthetized with (A) or without (B) a stepwise formation of the desired disulfide pattern, was also determined. An analogue of Michelicin which has the same sequence as Michelicin except for the cysteine residues that are replaced by a neutral analogue of cysteine (i.e. Michelicin-OH 2343 (Abu-3-6-11-15)) was synthesized. Abu means 2-aminobutanoic group. This analogue is devoid of disulfide bridges. This analogue of Michelicin is called Michelicin no SS in Table VI.

[5] = test system: Helicobacter pylori 21031; assay type: cell-based
Protocol: as §1

[6] = test system: Staphylococcus aureus; assay type: cell-based
Protocol: as §1

[7] = test system: Vibrio alginolyticus
[8] = test system: V. diabolicus (HE 800)
[9] = test system: B. subtilis nisin resistant (DSMZ 347); settings: Table VI; Bacillus subtilis Nisin resistant
[10] = test system: Clostridium perfringens (ATCC 13124); settings: Table VI
[11] = test system: M. smegmatis mc^2155

SMILES: CC[C@H](NC(=O)[C@H](CCCNC(=N)N)NC(=O)CNC(=O)[C@H](CC(N)=O)NC(=O)[C@H](CCCNC(=N)N)NC(=O)[C@H](CC)NC(=O)[C@@H](NC(=O)[C@H](CCCNC(=N)N)NC(=O)[C@@H](NC(=O)[C@H](CC)NC(=O)[C@@H](NC(=O)[C@@H](N)CCCNC(=N)N)C(C)C)C(C)C)[C@@H](C)CC)C(=O)N[C@@H](Cc1ccc(O)cc1)C(=O)N[C@@H](CCCNC(=N)N)C(=O)N[C@@H](CCCNC(=N)N)C(=O)N[C@@H](CC)C(=O)N[C@@H](Cc1c[nH]c2ccccc12)C(=O)N[C@@H](CC(N)=O)C(=O)N[C@H](C(=O)O)[C@@H](C)O [Michelicin no SS, Michelicin-OH 2343 (Abu-3-6-11-15)] (H-RV[Abu]VRI[Abu]RNGR[Abu]YRR[Abu]WNT-OH; N-terminus assumed)
- MIC [1]: >80 µM
- MIC [2]: >80 µM
- MIC [3]: 80 µM (≈ 187 µg/mL)
- MIC [4]: 2.5 µM (≈ 5.86 µg/mL)
- MIC [5]: 40 µM (≈ 93.7 µg/mL)
- MIC [6]: 80 µM (≈ 187 µg/mL)
- MIC [7]: 0.625 µM (≈ 1.46 µg/mL)
- MIC [8]: >80 µM
- MIC [9]: 5 µM (≈ 11.7 µg/mL)
- MIC [10]: >80 µM
- MIC [11]: 20 µM (≈ 46.9 µg/mL)
